Results taken from patent US20240252677A1, “ONE-COMPONENT DELIVERY SYSTEM FOR NUCLEIC ACIDS” (The Trustees of the University of Pennsylvania, priority 2021, published 2024).

How the values were obtained:
liver = assay: In vivo mRNA delivery, IVIS imaging of organs: liver; parameters: species or system mice; conditions: Table 14
Description: The exposure time was 1 min.
Tissue luminescence signal was measured on the IVIS imaging system using an exposure time of 60 seconds using medium binning (binning=8) to ensure that the signal obtained was within operative detection range. […] Bioluminescence imaging was performed as described above.
Tissue luminescence signal was measured on the IVIS imaging system using a certain exposure time (60, 30 or 15 seconds) and medium binning (binning=8) to ensure that the signal obtained was within operative detection range.

[1] = Dimensions (size, PDI) of DNPs co-assembled from IAJDs and Luc-mRNA by DLS; format: physicochemical; conditions: DNPs, IAJD 4 mg/mL + Luc-mRNA 0.10 mg/mL
Procedure, shortened: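 IAJDs (80 mg/mL ethanol stock) rapidly injected into Luc-mRNA (4.0 mg/mL stock) diluted in 10 mM acetate buffer pH 4.0, then vortexed 5 s. Size and polydispersity of resulting DNPs measured by DLS (633 nm laser, 175° detection) at 23 °C.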

spleen = assay: In vivo mRNA delivery, IVIS imaging of organs: spleen; parameters: species or system mice; conditions: Table 14
lung = assay: In vivo mRNA delivery, IVIS imaging of organs: lung; parameters: species or system mice; conditions: Table 14
[2] = Table 12, acetate buffer 10 mM pH 4.0
[3] = Table 13, acetate buffer pH 4.0
[4] = Table 14, acetate buffer pH 4.0

| Compound | PDI [1, 2] | Size (d, nm) [1, 2] [nm] | PDI [1, 3] | Size (d, nm) [1, 3] [nm] | PDI [1, 4] | Size (d, nm) [1, 4] [nm] | Organs with luminescence: liver (weak/strong) (liver; imaging 6 h after injection) | Organs with luminescence: spleen (weak/strong) (spleen; imaging 6 h after injection) | Organs with luminescence: lung (weak/strong) (lung; imaging 6 h after injection) | Organs with luminescence: liver (weak/strong) (liver; imaging 5 h after injection) | Organs with luminescence: spleen (weak/strong) (spleen; imaging 5 h after injection) | Organs with luminescence: lung (weak/strong) (lung; imaging 5 h after injection) |
| --- | --- | --- | --- | --- | --- | --- | --- | --- | --- | --- | --- | --- |
| CCCCCCCCCCCCOc1cc(COC(=O)CCCN2CCN(C)CC2)cc(OCCCCCCCCCCCC)c1OCCCCCCCCCCCC [IAJD 79, 3,4,5-Tris(dodecyloxy)benzyl 4-(4-methylpiperazin-1-yl)butanoate] | 0.763 | 352 | 0.763 | 352 | 0.763 | 352 | liver (weak), | spleen (strong) | Lung (weak), | – | – | – |
| CCCCCCCCCCCCOCC(COCCCCCCCCCCCC)(COCCCCCCCCCCCC)COC(=O)CCCN1CCN(CCO)CC1 [IAJD 83, 3-(Dodecyloxy)-2,2-bis((dodecyloxy)methyl)propyl 4-(4-(2-hydroxyethyl)piperazin-1-yl)butanoate] | 0.430 | 143 | 0.430 | 143 | 0.430 | 143 | – | – | – | liver (weak), | spleen (strong) | Lung (weak), |
| CCCCCCCCCCCCOc1cc(COC(=O)CCN2CCN(C)CC2)cc(OCCCCCCCCCCCC)c1 [IAJD 84, 3,5-Bis(dodecyloxy)benzyl 3-(4-methylpiperazin-1-yl)propanoate] | 0.303 | 171 | 0.303 | 171 | 0.303 | 171 | – | – | – | liver (weak), | spleen (strong) | Lung (weak), |
| CCCCCCCOC(=O)CCCCOc1cc(COC(=O)CCCN2CCN(C)CC2)cc(OCCCCC(=O)OCCCCCCC)c1 [IAJD 85, Diheptyl 5,5′-((5-(((4-(4-methylpiperazin-1-yl)butanoyl)oxy)methyl)-1,3-phenylene)bis(oxy)) dipentanoate] | 0.250 | 102 | 0.250 | 102 | 0.250 | 102 | – | – | – | liver (weak), | spleen (strong) | Lung (weak), |
| CCCCC(CC)COc1cc(COC(=O)CCCN2CCN(CCO)CC2)cc(OCC(CC)CCCC)c1 (stereo not drawn) [IAJD 87, 3,5-Bis((2-ethylhexyl)oxy)benzyl 4-(4-(2-hydroxyethyl)piperazin-1-yl)butanoate] | 0.486 | 146 | 0.486 | 146 | 0.486 | 146 | liver (weak), | spleen (strong) | Lung (weak), | – | – | – |
| CCCCCCCCOc1cc(COC(=O)CCCN2CCN(C)CC2)cc(OCCCCCCCC)c1 [IAJD 88, 3,5-Bis(octyloxy)benzyl 4-(4-methylpiperazin-1-yl)butanoate] | 0.342 | 100 | 0.342 | 100 | 0.342 | 100 | liver (weak), | spleen (strong) | Lung (weak), | – | – | – |

The next lines start with results.

| PDI [1, 2] | Size (d, nm) [1, 2] [nm] | PDI [1, 3] | Size (d, nm) [1, 3] [nm] | PDI [1, 4] | Size (d, nm) [1, 4] [nm] | Compound | Organs with luminescence: liver (weak/strong) (liver; imaging 6 h after injection) | Organs with luminescence: spleen (weak/strong) (spleen; imaging 6 h after injection) | Organs with luminescence: lung (weak/strong) (lung; imaging 6 h after injection) | Organs with luminescence: liver (weak/strong) (liver; imaging 5 h after injection) | Organs with luminescence: spleen (weak/strong) (spleen; imaging 5 h after injection) | Organs with luminescence: lung (weak/strong) (lung; imaging 5 h after injection) |
| --- | --- | --- | --- | --- | --- | --- | --- | --- | --- | --- | --- | --- |
| 0.467 | 149 | 0.467 | 149 | 0.467 | 149 | CCCCCCCCOc1cc(COC(=O)CCCN2CCN(CCO)CC2)cc(OCCCCCCCC)c1 [IAJD 89] | liver (weak), | spleen (strong) | Lung (weak), | – | – | – |
| 0.498 | 188 | 0.498 | 188 | 0.498 | 188 | CCCCCCCCCCOc1cc(COC(=O)CCCN2CCN(CCO)CC2)cc(OCCCCCCCCCC)c1 [IAJD 91, 3,5-Bis(decyloxy)benzyl 4-(4-(2-hydroxyethyl)piperazin-1-yl)butanoate] | liver (weak), | spleen (strong) | Lung (weak), | – | – | – |
| 0.352 | 105 | 0.352 | 105 | 0.352 | 105 | CCCCC(CC)COC(=O)CCCCOc1cc(COC(=O)CCCN2CCN(CCO)CC2)cc(OCCCCC(=O)OCC(CC)CCCC)c1 (stereo not drawn) [IAJD 95] | liver (weak), | spleen (strong) | Lung (weak), | – | – | – |
| 0.402 | 139 | 0.402 | 139 | 0.402 | 139 | CCCCC(CC)COc1cc(COC(=O)CCCN2CCN(C)CC2)cc(OCC(CC)CCCC)c1OCC(CC)CCCC (stereo not drawn) [IAJD 96, 3,4,5-Tris((2-ethylhexyl)oxy)benzyl 4-(4-methylpiperazin-1-yl)butanoate] | – | – | – | liver (weak), | spleen (strong) | Lung (weak), |
| 0.482 | 204 | 0.482 | 204 | 0.482 | 204 | CCCCC(CC)COc1cc(COC(=O)CCCN2CCN(CCO)CC2)cc(OCC(CC)CCCC)c1OCC(CC)CCCC (stereo not drawn) [IAJD 97, 3,4,5-Tris((2-ethylhexyl)oxy)benzyl 4-(4-(2-hydroxyethyl)piperazin-1-yl)butanoate] | – | – | – | liver (weak), | spleen (strong) | Lung (weak), |
| 0.221 | 187 | 0.221 | 187 | 0.221 | 187 | CCCCCCCCCCCCCCCCCCOc1cc(COC(=O)CCCN2CCN(C)CC2)cc(OCCCCCCCCCCCCCCCCCC)c1 [IAJD 98, 3,5-Bis(octadecyloxy)benzyl 4-(4-methylpiperazin-1-yl)butanoate] | liver (weak), | spleen (strong) | Lung (weak), | – | – | – |
| 0.571 | 277 | 0.571 | 277 | 0.571 | 277 | CCCCCCCCCCCCCCCCCCOc1cc(COC(=O)CCCN2CCN(CCO)CC2)cc(OCCCCCCCCCCCCCCCCCC)c1 [IAJD 99, 3,5-Bis(octadecyloxy)benzyl 4-(4-(2-hydroxyethyl)piperazin-1-yl)butanoate] | liver (weak), | spleen (strong) | Lung (weak), | – | – | – |
